From patent US4593090A, “Novel nitrosourea compounds, method for preparing same, and pharmaceutical composition containing same” (Gogo Kimura, priority 1981, dated 1986)

How the values were obtained:
[1] = Acute toxicity (LD50, Behrens-Karber method); type: in vivo, ICR mice; details: ip, mortality during 30 days; for LD50 at 720 h: mouse, in vivo
Protocol: Test compounds, dissolved or suspended in 0.5% aqueous CMC, were each intraperitoneally administered to ICR mice in a dose of 0.1 ml per 10 g body weight. LD50 (mg/kg) value of each test compound was calculated from the mortality of mice during 30 days by the Behrens-Karber method.

Leukemia L1210 = assay: Activity against Leukemia L1210, intraperitoneal, increase in life span of mice; type: in vivo, female mice (BDF1 family); details: for ED (maximum ILS) / ED30: Mus musculus, L1210, ip; for ED (maximum ILS): read-out: O.D. (optimum dosage); for ED30: read-out: ILS30; for Survivors after 60 days / Max. ILS % / Therapeutic ratio TR: ip; for Survivors after 60 days: 6-membered group; for Max. ILS %: 60-day observation, versus control; for Therapeutic ratio TR: O.D./ILS30
Procedure, shortened: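 Mice (female BDF1, 20–23 g) carrying 1×10^5 ip-implanted L1210 cells were given daily ip or oral doses for 5 days; ILS% came from mean survival over 60 days relative to controls.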

[2] = ip once a day for 5 successive days, daily dosage giving maximum increase of life span
[3] = ip once a day for 5 successive days, daily dosage increasing average survival days by 30%

In the case of COCCCOC1OC(CO)C(O)C(O)C1N(CC(C)C)C(=O)N(CCCl)N=O [Compound 68, 3-isobutyl-3-(3-methoxy-n-propyl α-D-glucopyranose-2-yl)-1-(2-chloroethyl)-1-nitrosourea], the LD50 at 720 h [1] was 500 mg/kg, the ED (maximum ILS) (Leukemia L1210; [2]) was 170 mg/kg and the ED30 (Leukemia L1210; [3]) was 4.43 mg/kg. For the same compound, the “Survivors after 60 days” value (Leukemia L1210) was 4/6, the “Max. ILS %” value (Leukemia L1210) was over 425% and the “Therapeutic ratio TR” value (Leukemia L1210) was 38.4.
Work on COc1ccc(CN(C[C@H]2O[C@H](OCC(C)C)[C@H](O)[C@@H](O)[C@@H]2O)C(=O)N(CCCl)N=O)cc1 [Compound 21, 3-(p-methoxybenzyl)-3-(isobutyl α-D-glucopyranose-6-yl)-1-(2-chloroethyl)-1-nitrosourea] yielded an LD50 at 720 h [1] of 585 mg/kg, an ED (maximum ILS) (Leukemia L1210; [2]) of 200 mg/kg and an ED30 (Leukemia L1210; [3]) of 5.45 mg/kg. For the same compound, the “Survivors after 60 days” value (Leukemia L1210) was 3/6, the “Max. ILS %” value (Leukemia L1210) was over 360% and the “Therapeutic ratio TR” value (Leukemia L1210) was 36.7.
C=C(C)CN(C(=O)N(CCCl)N=O)C1C(CO)OC(OC2CCCCC2)C(O)C1O [Compound 97, 3-(2-methyl-2-propenyl)-3-(cyclohexyl α-D-glucopyranose-4-yl)-1-(2-chloroethyl)-1-nitrosourea] showed an LD50 at 720 h [1] of 390 mg/kg, an ED (maximum ILS) (Leukemia L1210; [2]) of 120 mg/kg and an ED30 (Leukemia L1210; [3]) of 3.72 mg/kg. For the same compound, the “Survivors after 60 days” value (Leukemia L1210) was 3/6, the “Max. ILS %” value (Leukemia L1210) was over 360% and the “Therapeutic ratio TR” value (Leukemia L1210) was 32.3.
Work on CC(C)CN(C(=O)N(CCCl)N=O)[C@@H]1[C@@H](O)[C@@H](OC2CCCCC2)OC[C@H]1O [Compound 150, 3-isobutyl-3-(cyclohexyl α-D-xylopyranose-3-yl)-1-(2-chloroethyl)-1-nitrosourea] yielded an LD50 at 720 h [1] of 505 mg/kg, an ED (maximum ILS) (Leukemia L1210; [2]) of 150 mg/kg and an ED30 (Leukemia L1210; [3]) of 3.12 mg/kg. The “Survivors after 60 days” value (Leukemia L1210) was 4/6, the “Max. ILS %” value (Leukemia L1210) was over 420% and the “Therapeutic ratio TR” value (Leukemia L1210) was 48.1.
In the case of CC(C)CN(C[C@H]1O[C@H](OC(C)(C)C)[C@H](O)[C@@H](O)[C@@H]1O)C(=O)N(CCCl)N=O [Compound 28, 3-isobutyl-3-(2-methyl-2-propyl α-D-glucopyranose-6-yl)-1-(2-chloroethyl)-1-nitrosourea], the LD50 [1] was 375 mg/kg, the “O.D. (optimum dosage)” value (Leukemia L1210; [2]) was 130 mg/kg and the ILS30 (Leukemia L1210; [3]) was 3.00 mg/kg. For the same compound, the “Survivors after 60 days” value (Leukemia L1210) was 6/6, the “Max. ILS %” value (Leukemia L1210) was over 700% and the “Therapeutic ratio TR” value (Leukemia L1210) was 43.2.
COCC(C)N(C[C@H]1O[C@H](OC2CCCC2)[C@H](O)[C@@H](O)[C@@H]1O)C(=O)N(CCCl)N=O (stereo partly drawn) [Compound 172, 3-(1-methy-2-methoxyethyl)-3-(cyclopentyl α-D-glucopyranose-6-yl)-1-(2-chloroethyl)-1-nitrosourea] showed an LD50 at 720 h [1] of 600 mg/kg, an ED (maximum ILS) (Leukemia L1210; [2]) of 180 mg/kg and an ED30 (Leukemia L1210; [3]) of 2.67 mg/kg. For the same compound, the “Survivors after 60 days” value (Leukemia L1210) was 6/6, the “Max. ILS %” value (Leukemia L1210) was over 700% and the “Therapeutic ratio TR” value (Leukemia L1210) was 67.3.
With COC(C)CO[C@H]1O[C@H](CN(CC2CC2)C(=O)N(CCCl)N=O)[C@H](O)[C@H](O)[C@H]1O (stereo partly drawn) [Compound 116, 3-cyclopropylmethyl-3-(2-methoxy-n-propyl α-D-galactopyranose-6-yl)-1-(2-chloroethyl)-1-nitrosourea] the LD50 at 720 h [1] was 450 mg/kg, the ED (maximum ILS) (Leukemia L1210; [2]) was 150 mg/kg and the ED30 (Leukemia L1210; [3]) was 2.51 mg/kg. For the same compound, the “Survivors after 60 days” value (Leukemia L1210) was 6/6, the “Max. ILS %” value (Leukemia L1210) was over 700% and the “Therapeutic ratio TR” value (Leukemia L1210) was 59.8.
Work on CCC(C)N(C[C@H]1O[C@H](OC2CCCCC2)[C@H](O)[C@@H](O)[C@@H]1O)C(=O)N(CCCl)N=O (stereo partly drawn) [Compound 37, 3-sec-butyl-3-(cyclohexyl α-D-glucopyranose-6-yl)-1-(2-chloroethyl)-1-nitrosourea] yielded an LD50 at 720 h [1] of 605 mg/kg, an ED (maximum ILS) (Leukemia L1210; [2]) of 200 mg/kg and an ED30 (Leukemia L1210; [3]) of 3.69 mg/kg. For the same compound, the “Survivors after 60 days” value (Leukemia L1210) was 5/6, the “Max. ILS %” value (Leukemia L1210) was over 620% and the “Therapeutic ratio TR” value (Leukemia L1210) was 54.2.
In the case of COc1ccc(CN(C(=O)N(CCCl)N=O)[C@H]2[C@@H](OCC(C)C)O[C@H](CO)[C@H](O)[C@@H]2O)cc1 [Compound 120, 3-(p-methoxybenzyl)-3-(isobutyl α-D-galactopyranose-2-yl)-1-(2-chloroethyl)-1-nitrosourea], the LD50 at 720 h [1] was 550 mg/kg, the ED (maximum ILS) (Leukemia L1210; [2]) was 170 mg/kg and the ED30 (Leukemia L1210; [3]) was 6.59 mg/kg. The “Survivors after 60 days” value (Leukemia L1210) was 3/6, the “Max. ILS %” value (Leukemia L1210) was over 340% and the “Therapeutic ratio TR” value (Leukemia L1210) was 25.8.
COC(C)CN(C[C@H]1O[C@H](OC2CCCCC2)[C@H](O)[C@@H](O)[C@H]1O)C(=O)N(CCCl)N=O (stereo partly drawn) [Compound 103, 3-(2-methoxy-n-propyl)-3-(cyclohexyl α-D-galactopyranose-6-yl)-1-(2-chloroethyl)-1-nitrosourea] showed an LD50 at 720 h [1] of 685 mg/kg, an ED (maximum ILS) (Leukemia L1210; [2]) of 200 mg/kg and an ED30 (Leukemia L1210; [3]) of 3.63 mg/kg. For the same compound, the “Survivors after 60 days” value (Leukemia L1210) was 5/6, the “Max. ILS %” value (Leukemia L1210) was over 625% and the “Therapeutic ratio TR” value (Leukemia L1210) was 55.1.
For Cc1ccc(CN(C[C@H]2O[C@H](OCC(C)C)[C@H](O)[C@@H](O)[C@H]2O)C(=O)N(CCCl)N=O)cc1 [Compound 111, 3-(p-methylbenzyl)-3-(isobutyl α-D-galactopyranose-6-yl)-1-(2-chloroethyl)-1-nitrosourea], the LD50 at 720 h [1] was 600 mg/kg, the ED (maximum ILS) (Leukemia L1210; [2]) was 200 mg/kg and the ED30 (Leukemia L1210; [3]) was 7.04 mg/kg. For the same compound, the “Survivors after 60 days” value (Leukemia L1210) was 3/6, the “Max. ILS %” value (Leukemia L1210) was over 345% and the “Therapeutic ratio TR” value (Leukemia L1210) was 28.4.
For CCCCCCO[C@H]1O[C@H](CN(C(=O)N(CCCl)N=O)C(C)COC)[C@@H](O)[C@H](O)[C@H]1O (stereo partly drawn) [Compound 27, 3-(1-methyl-2-methoxyethyl)-3-(n-hexyl α-D-glucopyranose-6-yl)-1-(2-chloroethyl)-1-nitrosourea], the LD50 at 720 h [1] was 505 mg/kg, the ED (maximum ILS) (Leukemia L1210; [2]) was 170 mg/kg and the ED30 (Leukemia L1210; [3]) was 4.67 mg/kg. For the same compound, the “Survivors after 60 days” value (Leukemia L1210) was 5/6, the “Max. ILS %” value (Leukemia L1210) was over 630% and the “Therapeutic ratio TR” value (Leukemia L1210) was 36.4.
For O=NN(CCCl)C(=O)N(CCCCO)C1C(OC2CCCCC2)OC(CO)C(O)C1O [Compound 66, 3-(4-hydroxy-n-butyl)-3-(cyclohexyl α-D-glucopyranose-2-yl)-1-(2-chloroethyl)-1-nitrosourea], the LD50 at 720 h [1] was 620 mg/kg, the ED (maximum ILS) (Leukemia L1210; [2]) was 200 mg/kg and the ED30 (Leukemia L1210; [3]) was 8.55 mg/kg. For the same compound, the “Survivors after 60 days” value (Leukemia L1210) was 3/6, the “Max. ILS %” value (Leukemia L1210) was over 345% and the “Therapeutic ratio TR” value (Leukemia L1210) was 23.4.
In the case of CCCCN(C[C@H]1O[C@H](OC)[C@H](O)[C@@H](O)[C@@H]1O)C(=O)N(CCCl)N=O [Compound 6MCαGB, 3-n-butyl-3-(methyl α-D-glucopyranose-6-yl)-1-(2-chloroethyl)-1-nitrosourea, reference compound], the LD50 at 720 h [1] was 92 mg/kg, the ED (maximum ILS) (Leukemia L1210; [2]) was 30 mg/kg and the ED30 (Leukemia L1210; [3]) was 1.34 mg/kg. For the same compound, the “Survivors after 60 days” value (Leukemia L1210) was 4/6, the “Max. ILS %” value (Leukemia L1210) was over 440% and the “Therapeutic ratio TR” value (Leukemia L1210) was 22.4.
CCC(C)OC1OC(CO)C(N(C(=O)N(CCCl)N=O)C(C)COC)C(O)C1O [Compound 96, 3-(1-methyl-2-methoxyethyl)-3-(sec-butyl α-D-glucopyranose-4-yl)-1-(2-chloroethyl)-1-nitrosourea] gave an LD50 at 720 h [1] of 450 mg/kg, an ED (maximum ILS) (Leukemia L1210; [2]) of 150 mg/kg and an ED30 (Leukemia L1210; [3]) of 4.46 mg/kg. For the same compound, the “Survivors after 60 days” value (Leukemia L1210) was 3/6, the “Max. ILS %” value (Leukemia L1210) was over 355% and the “Therapeutic ratio TR” value (Leukemia L1210) was 33.6.
In the case of COCCCOC1OC(CO)C(O)C(N(CC(C)C)C(=O)N(CCCl)N=O)C1O [Compound 77, 3-isobutyl-3-(3-methoxy-n-propyl α-D-glucopyranose-3-yl)-1-(2-chloroethyl)-1-nitrosourea], the LD50 at 720 h [1] was 685 mg/kg, the ED (maximum ILS) (Leukemia L1210; [2]) was 200 mg/kg and the ED30 (Leukemia L1210; [3]) was 5.08 mg/kg. For the same compound, the “Survivors after 60 days” value (Leukemia L1210) was 4/6, the “Max. ILS %” value (Leukemia L1210) was over 425% and the “Therapeutic ratio TR” value (Leukemia L1210) was 39.4.
